{"source": "patent US6873914B2", "about": "“Methods and systems for analyzing complex biological systems” (Icoria, Inc., priority 2001, dated 2005)", "key": {"[1]": {"tested_on": "Saccharomyces cerevisiae wild type strain BY4743", "assay": "AF1 metabolite analysis (GC-MS, LC-MS) of yeast cells treated with antifungal drugs", "format": "cell-based"}, "[2]": {"tested_on": "Saccharomyces cerevisiae wild type strain BY4743", "assay": "AF1 combined gene expression and metabolite data mapped to KEGG reactions and pathways, cluster analysis", "format": "cell-based", "source_text": "In AF1, two different technologies were utilized: gene expression analysis (for examination of mRNA expression) and metabolite analysis. […] As noted previously, existing metabolic databases may be helpful in practicing the methods and systems of the present invention, but many databases include limitations that make their use in data analysis and pathway mapping less than straightforward. […] This caveat to KEGG makes it difficult to pinpoint the correct pathway when attempting to link a gene to a specific pathway. […] The pathway score indicates how meaningful the mapping is, or how likely it is to be correctly indicative of the pathway involved in the perturbation under examination. […] Degree of perturbation can be calculated, for example, based on a number of standard deviations from a norm, and included in an equation such as the one shown above, so that not only the number of pathways is taken into account, but also accounts for the amount of gene transcript or compound present as compared to a control. […] KEGG links 676 compounds measured in AF1 to a total of 92 pathways. Of the 676 compounds under consideration, 77 were detected in the AF1 samples. […]"}}, "data": [{"smiles": "C[C@@H]1[C@H](O)[C@@H](C)/C=C/C=C/C=C/C=C/C=C/C=C/C=C/[C@H](O[C@@H]2O[C@H](C)[C@@H](O)[C@H](N)[C@@H]2O)C[C@@H]2O[C@](O)(C[C@@H](O)C[C@@H](O)[C@H](O)CC[C@@H](O)C[C@@H](O)CC(=O)O[C@H]1C)C[C@H](O)[C@H]2C(=O)O", "note": "[Amphoteracin B]", "values": [{"measurement": "squalene and lanosterol in treated yeast cells", "setting": "[1]; AF1, 2×MIC, two hours", "value": "not"}, {"measurement": "Fold Change: campesterol", "setting": "[1]; GC", "value": 0}, {"measurement": "Fold Change: desmosterol", "setting": "[1]; GC", "value": 0}, {"measurement": "Fold Change: octadecanoic acid", "setting": "[1]; GC", "value": 0.21}, {"measurement": "Fold Change: abscisic acid", "setting": "[1]; LC", "value": 0}, {"measurement": "Fold Change: adenosine", "setting": "[1]; LC", "value": 0}, {"measurement": "Fold Change: riboflavin", "setting": "[1]; LC", "value": 0}, {"measurement": "Fold Change: 4-methylcatechol", "setting": "[1]; nLC", "value": 0}, {"measurement": "Fold Change: 5hydroxyLtryptophan", "setting": "[1]; nLC", "value": 0}, {"measurement": "Fold Change: 6-benzylaminopurine", "setting": "[1]; nLC", "value": 0}, {"measurement": "Fold Change: NacetylDglucosamine", "setting": "[1]; nLC", "value": 0}, {"measurement": "Fold Change: NacetylLornithine", "setting": "[1]; nLC", "value": 0}, {"measurement": "Fold Change: abscisic acid", "setting": "[1]; nLC", "value": 0}, {"measurement": "Fold Change: adenine", "setting": "[1]; nLC", "value": 0}, {"measurement": "Fold Change: adenosine", "setting": "[1]; nLC", "value": 0}, {"measurement": "Fold Change: anthranilic acid", "setting": "[1]; nLC", "value": 0}, {"measurement": "Fold Change: argininosuccinate", "setting": "[1]; nLC", "value": 0}, {"measurement": "Fold Change: benzoic acid", "setting": "[1]; nLC", "value": 0}, {"measurement": "Fold Change: catechol", "setting": "[1]; nLC", "value": 0}, {"measurement": "Fold Change: cinnamic acid", "setting": "[1]; nLC", "value": 0}, {"measurement": "Fold Change: citricanoic/itaconi", "setting": "[1]; nLC", "value": 0}, {"measurement": "Fold Change: coumaric acid", "setting": "[1]; nLC", "value": 0}, {"measurement": "Fold Change: cytosine", "setting": "[1]; nLC", "value": 0}, {"measurement": "Fold Change: diaminopimelic acid", "setting": "[1]; nLC", "value": 0}, {"measurement": "Fold Change: dihydrofolic acid", "setting": "[1]; nLC", "value": 0}, {"measurement": "Fold Change: estrone", "setting": "[1]; nLC", "value": 0}, {"measurement": "Fold Change: farnesol", "setting": "[1]; nLC", "value": 0}, {"measurement": "Fold Change: folic acid", "setting": "[1]; nLC", "value": 0}, {"measurement": "Fold Change: gibberellic", "setting": "[1]; nLC", "value": 0}, {"measurement": "Fold Change: guanine", "setting": "[1]; nLC", "value": 0}, {"measurement": "Fold Change: histidine", "setting": "[1]; nLC", "value": 0}, {"measurement": "Fold Change: homogentisic/uric", "setting": "[1]; nLC", "value": 0}, {"measurement": "Fold Change: hydrocortisone", "setting": "[1]; nLC", "value": 0}, {"measurement": "Fold Change: indole3pyruvic acid", "setting": "[1]; nLC", "value": 0}, {"measurement": "Fold Change: jasmonic acid", "setting": "[1]; nLC", "value": 0}, {"measurement": "Fold Change: kinetin", "setting": "[1]; nLC", "value": 0}, {"measurement": "Fold Change: luteolin", "setting": "[1]; nLC", "value": 0}, {"measurement": "Fold Change: malonic acid", "setting": "[1]; nLC", "value": 0}, {"measurement": "Fold Change: methionine", "setting": "[1]; nLC", "value": 0}, {"measurement": "Fold Change: phenylpyruvic acid", "setting": "[1]; nLC", "value": 0}, {"measurement": "Fold Change: phosphoenolpyruvate", "setting": "[1]; nLC", "value": 0}, {"measurement": "Fold Change: pinitol", "setting": "[1]; nLC", "value": 0}, {"measurement": "Fold Change: porphobilinogen", "setting": "[1]; nLC", "value": 0}, {"measurement": "Fold Change: retinoic acid", "setting": "[1]; nLC", "value": 0}, {"measurement": "Fold Change: salicylic/HObenzoic", "setting": "[1]; nLC", "value": 0}, {"measurement": "Fold Change: shikimic acid", "setting": "[1]; nLC", "value": 0}, {"measurement": "Fold Change: sinapinic acid", "setting": "[1]; nLC", "value": 0}, {"measurement": "Fold Change: thymine", "setting": "[1]; nLC", "value": 0}, {"measurement": "Fold Change: 4-aminobenzoic acid", "setting": "[1]; pLC", "value": 0}, {"measurement": "Fold Change: 4-methylcatechol", "setting": "[1]; pLC", "value": 0}, {"measurement": "Fold Change: 5hydroxyLtryptophan", "setting": "[1]; pLC", "value": 0}, {"measurement": "Fold Change: 6benzylaminopurine", "setting": "[1]; pLC", "value": 0}, {"measurement": "Fold Change: NacetylDglucosamine", "setting": "[1]; pLC", "value": 0}, {"measurement": "Fold Change: NacetylLglutamate", "setting": "[1]; pLC", "value": 0}, {"measurement": "Fold Change: allantoic acid", "setting": "[1]; pLC", "value": 0}, {"measurement": "Fold Change: anthranilic acid", "setting": "[1]; pLC", "value": 0}, {"measurement": "Fold Change: argininosuccinate", "setting": "[1]; pLC", "value": 0}, {"measurement": "Fold Change: biotin", "setting": "[1]; pLC", "value": 0}, {"measurement": "Fold Change: caffeine", "setting": "[1]; pLC", "value": 0}, {"measurement": "Fold Change: citric acid TME", "setting": "[1]; pLC", "value": 0}, {"measurement": "Fold Change: cytidine", "setting": "[1]; pLC", "value": 0}, {"measurement": "Fold Change: cytosine", "setting": "[1]; pLC", "value": 0}, {"measurement": "Fold Change: diaminopimelic acid", "setting": "[1]; pLC", "value": 0}, {"measurement": "Fold Change: dihydrofolic acid", "setting": "[1]; pLC", "value": 0}, {"measurement": "Fold Change: dipicolinic acid", "setting": "[1]; pLC", "value": 0}, {"measurement": "Fold Change: folic acid", "setting": "[1]; pLC", "value": 0}, {"measurement": "Fold Change: glucosamine", "setting": "[1]; pLC", "value": 0}, {"measurement": "Fold Change: glucosamine6PO4", "setting": "[1]; pLC", "value": 0}, {"measurement": "Fold Change: histidine", "setting": "[1]; pLC", "value": 0}, {"measurement": "Fold Change: hydrocortisone", "setting": "[1]; pLC", "value": 0}, {"measurement": "Fold Change: itaconic acid dimes", "setting": "[1]; pLC", "value": 0}, {"measurement": "Fold Change: kinetin", "setting": "[1]; pLC", "value": 0}, {"measurement": "Fold Change: luteolin", "setting": "[1]; pLC", "value": 0}, {"measurement": "Fold Change: niacinamide", "setting": "[1]; pLC", "value": 0}, {"measurement": "Fold Change: nopaline", "setting": "[1]; pLC", "value": 0}, {"measurement": "Fold Change: phosphoenolpyruvate", "setting": "[1]; pLC", "value": 0}, {"measurement": "Fold Change: progesterone", "setting": "[1]; pLC", "value": 0}, {"measurement": "Fold Change: sugar-phosphate", "setting": "[1]; pLC", "value": 0}, {"measurement": "Fold Change: thiamine", "setting": "[1]; pLC", "value": 0}, {"measurement": "Fold Change: thymine", "setting": "[1]; pLC", "value": 0}, {"measurement": "Fold Change: tryptophan", "setting": "[1]; pLC", "value": 0}, {"measurement": "# Reactions Having an Enzyme and at Least One Compound Perturbed", "setting": "[2]", "value": 54}]}]}
